Experimental data from patent US12012398B2, “Bicyclic compounds as androgen receptor modulators” (NIDO BIOSCIENCES, INC., priority 2021, dated 2024).
Counter-ions that a name gives are not always drawn.

Tested on: LNCaP cells expressing ARR2PB-FireflyLuc and CMV-RenillaLuc
Assay: LNCaP ARR2PB-FireflyLuc reporter assay, antagonist mode;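 note: IC50 bins in nM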
Assay type: cell-based
Conditions: Homo sapiens, LNCaP, 48 h, +0.5 nM DHT, 48 h at 37° C., read-out: LNCap Antagonist Archive: IC50
Description: LNCaP cells expressing ARR2PB-FireflyLuc and CMV-RenillaLuc were treated with indicated concentrations of test compounds, enzalutamide (negative control), or DHT (positive control)+/−0.5 nM DHT for 48 h at 37° C. Fluorescent signals were read with the ImageXpress Micro Confocal System. Remaining activity (antagonist mode) was calculated as % Remaining Activity=100×[(ReadSample−LCave)/(HCave−LCave)] where HC is cells treated with 0.5 nM DHT only and LC is cells treated with 10 uM enzalutamide+0.5 nM DHT. Activation (agonist mode) was calculated as % Activation=100×[(ReadSample−LCave)/(HCave−LCave)] where HO is cells treated with 1 uM DHT and LC is cells treated with DMSO. Dose response curves and IC50 values were calculated using non-linear regression analysis in XLfit.
The designation “A” indicates an IC50 value of >10 μM, “B” indicates an IC50 value between 1 μM and 10 μM; “C” indicates an IC50 value between 100 nM and 1 μM; and “D” indicates an IC50 value of less than 100 nM.

With `Cc1nc(-c2c(C(=O)N(Cc3ccco3)C(C)C)[nH]c3cc(F)ccc23)ccc1N` [Example 1, 3-(5-amino-6-methylpyridin-2-yl)-6-fluoro-N-(furan-2-ylmethyl)-N-isopropyl-1H-indole-2-carboxamide] the IC50 was greater than 10 µM.

For `CC(C)N(Cc1ncco1)C(=O)c1cc2ccc(F)cc2[nH]1` [Example 2, 6-fluoro-N-isopropyl-N-(1,3-oxazol-2-ylmethyl)-1H-indole-2-carboxamide], the IC50 was greater than 10 µM.

In the case of `CC(C)N(Cc1ccco1)C(=O)c1cc2cccc(C#N)c2[nH]1` [Example 3, 7-cyano-N-(furan-2-ylmethyl)-N-isopropyl-1H-indole-2-carboxamide], the IC50 is reported as 1 to 10 µM.

`CC(C)N(CC1CCCO1)C(=O)c1cc2ccc(F)cc2[nH]1` (centres unmarked) [Example 4, 6-fluoro-N-isopropyl-N-(oxolan-2-ylmethyl)-1H-indole-2-carboxamide] was tested, and the IC50 was greater than 10 µM.

Compound `CC(C)N(Cc1ccon1)C(=O)c1cc2ccc(F)cc2[nH]1` [Example 5, 6-fluoro-N-isopropyl-N-(1,2-oxazol-3-ylmethyl)-1H-indole-2-carboxamide] has an IC50 of 1 to 10 µM.

`CC(C)N(Cc1cnco1)C(=O)c1cc2ccc(F)cc2[nH]1` [Example 6, 6-fluoro-N-isopropyl-N-(1,3-oxazol-5-ylmethyl)-1H-indole-2-carboxamide] showed an IC50 of 1 to 10 µM.

Work on `CC(C)N(Cc1ccccn1)C(=O)c1cc2ccc(F)cc2[nH]1` [Example 7, 6-fluoro-N-isopropyl-N-(pyridin-2-ylmethyl)-1H-indole-2-carboxamide] yielded an IC50 greater than 10 µM.

`CC(C)N(Cc1ccno1)C(=O)c1cc2ccc(F)cc2[nH]1` [Example 8, 6-fluoro-N-isopropyl-N-(1,2-oxazol-5-ylmethyl)-1H-indole-2-carboxamide] gave an IC50 of 1 to 10 µM.

Work on `CC(C)N(Cc1cccnc1)C(=O)c1cc2ccc(F)cc2[nH]1` [Example 9, 6-fluoro-N-isopropyl-N-(pyridin-3-ylmethyl)-1H-indole-2-carboxamide] yielded an IC50 of 1 to 10 µM.

For `CC(C)N(Cc1ccncc1)C(=O)c1cc2ccc(F)cc2[nH]1` [Example 10, 6-fluoro-N-isopropyl-N-(pyridin-4-ylmethyl)-1H-indole-2-carboxamide], the IC50 was 1 to 10 µM.

`CC(C)N(C(=O)c1cc2ccc(F)cc2[nH]1)c1ccccc1` [Example 11, 6-fluoro-N-isopropyl-N-phenyl-1H-indole-2-carboxamide] was tested, and the IC50 was 0.1 to 1 µM.

`COCCN(C(=O)c1cc2ccc(F)cc2[nH]1)c1ccccc1` [Example 12, 6-fluoro-N-(2-methoxyethyl)-N-phenyl-1H-indole-2-carboxamide] gave an IC50 of 1 to 10 µM.

For `CN(C(=O)c1cc2ccc(F)cc2[nH]1)c1ccccn1` [Example 13, 6-fluoro-N-methyl-N-(pyridin-2-yl)-1H-indole-2-carboxamide], the IC50 was 1 to 10 µM.

With `CN(C(=O)c1cc2ccc(F)cc2[nH]1)c1cccnc1` [Example 14, 6-fluoro-N-methyl-N-(pyridin-3-yl)-1H-indole-2-carboxamide] the IC50 was greater than 10 µM.

`CN(C(=O)c1cc2ccc(F)cc2[nH]1)c1ccncc1` [Example 15, 6-fluoro-N-methyl-N-(pyridin-4-yl)-1H-indole-2-carboxamide] was tested, and the IC50 was greater than 10 µM.

For `CN(C(=O)c1cc2ccc(F)cc2[nH]1)c1cccc(C#N)c1` [Example 16, N-(3-cyanophenyl)-6-fluoro-N-methyl-1H-indole-2-carboxamide], the IC50 was greater than 10 µM.

`CN(C(=O)c1cc2ccc(F)cc2[nH]1)c1ccc(C#N)cc1` [Example 17, N-(4-cyanophenyl)-6-fluoro-N-methyl-1H-indole-2-carboxamide] showed an IC50 of 1 to 10 µM.

Work on `CN(C(=O)c1cc2cccc(Cl)c2[nH]1)c1ccccc1` [Example 19, 7-chloro-N-methyl-N-phenyl-1H-indole-2-carboxamide] yielded an IC50 of 0.1 to 1 µM.

Work on `CN(C(=O)c1cc2cccc(C#N)c2[nH]1)C1CCCC1` [Example 20, 7-cyano-N-cyclopentyl-N-methyl-1H-indole-2-carboxamide] yielded an IC50 of 1 to 10 µM.

`CN(C(=O)c1cc2cccc(C#N)c2[nH]1)c1ccccc1` [Example 21, 7-cyano-N-methyl-N-phenyl-1H-indole-2-carboxamide] showed an IC50 of 0.1 to 1 µM.

Work on `CN(C(=O)c1[nH]c2ccccc2c1Cl)c1ccccc1` [Example 22, 3-chloro-N-methyl-N-phenyl-1H-indole-2-carboxamide] yielded an IC50 greater than 10 µM.

`CN(C(=O)c1nc2ccc(F)cc2[nH]1)c1ccccc1` [Example 23, 5-fluoro-N-methyl-N-phenyl-3H-1,3-benzodiazole-2-carboxamide] gave an IC50 greater than 10 µM.

`CN(C(=O)c1cc2ccc(F)cc2o1)c1ccccc1` [Example 24, 6-fluoro-N-methyl-N-phenyl-1-benzofuran-2-carboxamide] gave an IC50 of 1 to 10 µM.

`CN(C(=O)c1cc2cccc(C(F)(F)F)c2[nH]1)c1ccccc1` [Example 25, N-methyl-N-phenyl-7-(trifluoromethyl)-1H-indole-2-carboxamide] showed an IC50 of 0.1 to 1 µM.

`CN(C(=O)c1cc2cccc(C(F)(F)F)c2[nH]1)c1ccccn1` [Example 26, N-methyl-N-(pyridin-2-yl)-7-(trifluoromethyl)-1H-indole-2-carboxamide] was tested, and the IC50 was 0.1 to 1 µM.

`CN(C(=O)c1cc2cccc(C(F)(F)F)c2[nH]1)c1ccc(C#N)cc1` [Example 27, N-(4-cyanophenyl)-N-methyl-7-(trifluoromethyl)-1H-indole-2-carboxamide] gave an IC50 of 1 to 10 µM.

Work on `CN(C(=O)c1cc2cccc(Cl)c2[nH]1)c1ccccn1` [Example 28, 7-chloro-N-methyl-N-(pyridin-2-yl)-1H-indole-2-carboxamide] yielded an IC50 of 1 to 10 µM.

For `CN(C)C(=O)c1cc2cccc(Cl)c2[nH]1` [Example 29, 7-chloro-N,N-dimethyl-1H-indole-2-carboxamide], the IC50 was 1 to 10 µM.

Compound `CN(C(=O)c1cc2cccc(Cl)c2[nH]1)C1CCCC1` [Example 30, 7-chloro-N-cyclopentyl-N-methyl-1H-indole-2-carboxamide] has an IC50 of 0.1 to 1 µM.

Work on `CN(C(=O)c1cc2cccc(Cl)c2[nH]1)C1CCOC1` (centres unmarked) [Example 31, 7-chloro-N-methyl-N-(oxolan-3-yl)-1H-indole-2-carboxamide] yielded an IC50 of 0.1 to 1 µM.

Work on `CN(CC1CC1)C(=O)c1cc2cccc(Cl)c2[nH]1` [Example 32, 7-chloro-N-(cyclopropylmethyl)-N-methyl-1H-indole-2-carboxamide] yielded an IC50 of 1 to 10 µM.

`CN(C(=O)c1cc2cccc(Cl)c2[nH]1)c1ccc(C#N)cc1` [Example 33, 7-chloro-N-(4-cyanophenyl)-N-methyl-1H-indole-2-carboxamide] was tested, and the IC50 was 1 to 10 µM.

For `CN(C(=O)c1cc2cccc(C#N)c2o1)c1ccc(F)cc1` [Example 34, 7-cyano-N-(4-fluorophenyl)-N-methyl-1-benzofuran-2-carboxamide], the IC50 was greater than 10 µM.

`CN(C(=O)c1cc2cccc(Cl)c2o1)c1ccc(F)cc1` [Example 35, 7-chloro-N-(4-fluorophenyl)-N-methyl-1-benzofuran-2-carboxamide] gave an IC50 of 1 to 10 µM.

With `CN(C(=O)c1cc2cccc(C(F)(F)F)c2o1)c1ccc(F)cc1` [Example 36, N-(4-fluorophenyl)-N-methyl-7-(trifluoromethyl)benzofuran-2-carboxamide] the IC50 was 1 to 10 µM.

Compound `CN(C(=O)c1cc2cccc(Cl)c2o1)c1ccccn1` [Example 37, 7-chloro-N-methyl-N-(pyridin-2-yl)-1-benzofuran-2-carboxamide] has an IC50 greater than 10 µM.

With `CN(C(=O)c1cc2ccc(F)cc2o1)c1ccccn1` [Example 38, 6-fluoro-N-methyl-N-(pyridin-2-yl)-1-benzofuran-2-carboxamide] the IC50 was greater than 10 µM.

`CN(C(=O)c1cc2ccc(F)cc2o1)c1ccc(F)cc1` [Example 39, 6-fluoro-N-(4-fluorophenyl)-N-methyl-1-benzofuran-2-carboxamide] gave an IC50 of 1 to 10 µM.

`CN(C(=O)c1cc2cccc(Cl)c2[nH]1)C1CCNC1` (centres unmarked) [Example 40, 7-chloro-N-methyl-N-(pyrrolidin-3-yl)-1H-indole-2-carboxamide trifluoroacetic acid salt] was tested, and the IC50 was greater than 10 µM.

For `CC(C)N1CCC(N(C)C(=O)c2cc3cccc(Cl)c3[nH]2)C1` (centres unmarked) [Example 41, 7-chloro-N-(1-isopropylpyrrolidin-3-yl)-N-methyl-1H-indole-2-carboxamide], the IC50 was greater than 10 µM.

`CN(C(=O)c1cc2cccc(Cl)c2[nH]1)C1CCCNC1` (centres unmarked) [Example 42, 7-chloro-N-methyl-N-(piperidin-3-yl)-1H-indole-2-carboxamide] showed an IC50 greater than 10 µM.

For `CN(C(=O)c1cc2cccc(Cl)c2[nH]1)C1CCNCC1` [Example 43, 7-chloro-N-methyl-N-(piperidin-4-yl)-1H-indole-2-carboxamide], the IC50 was greater than 10 µM.

`CC(C)N1CCCC(N(C)C(=O)c2cc3cccc(Cl)c3[nH]2)C1` (centres unmarked) [Example 44, 7-chloro-N-(1-isopropylpiperidin-3-yl)-N-methyl-1H-indole-2-carboxamide] showed an IC50 greater than 10 µM.

`CC(C)N1CCC(N(C)C(=O)c2cc3cccc(Cl)c3[nH]2)CC1` [Example 45, 7-chloro-N-(1-isopropylpiperidin-4-yl)-N-methyl-1H-indole-2-carboxamide] was tested, and the IC50 was greater than 10 µM.

For `NCCN(CC1CC1)C(=O)c1cc2cccc(Cl)c2[nH]1` [Example 47, N-(2-aminoethyl)-7-chloro-N-(cyclopropylmethyl)-1H-indole-2-carboxamide], the IC50 was greater than 10 µM.

`COCCN(C(=O)c1cc2ccc(F)cc2[nH]1)c1cnn(C)c1` [Example 49, 6-fluoro-N-(2-methoxyethyl)-N-(1-methylpyrazol-4-yl)-1H-indole-2-carboxamide] gave an IC50 greater than 10 µM.

`COCCN(C(=O)c1cc2ccc(F)cc2[nH]1)c1ccc(C#N)cc1` [Example 51, N-(4-cyanophenyl)-6-fluoro-N-(2-methoxyethyl)-1H-indole-2-carboxamide] was tested, and the IC50 was 1 to 10 µM.
